Broadly, the MIC is the lowest concentration that inhibits growth of the organism.

Data on 14 compounds can be found in ChEMBL document CHEMBL1781990, “Synthesis and pharmacological activity of O-aminoalkyl derivatives of 7-hydroxycoumarin” (2011).

Converted amounts (≈) assume the structure as drawn. The source made the active and inactive calls. The calls are words filed in the database; no cut-off is given here.

Assay [1] concerns Escherichia coli. As to the kind of experiment: Antibacterial against Escherichia coli ATCC 8739 at 20 mg/mL after 24 hrs by NCCLS M7-A6 method. The class given is functional, organism-based.
The subject of assay [2] is Staphylococcus aureus. Kind of assay: Antibacterial against Staphylococcus aureus ATCC 6538 at 20 mg/mL after 24 hrs by NCCLS M7-A6 method. The class given is functional, organism-based.
Assay [3] has as its system Escherichia coli. Kind of assay: Antibacterial against Escherichia coli ATCC 10536 at 20 mg/mL after 24 hrs by NCCLS M7-A6 method. The class given is functional, organism-based.
In assay [4] the test system is Staphylococcus aureus. As to the kind of experiment: Antibacterial against Staphylococcus aureus ATCC 6538P at 20 mg/mL after 24 hrs by NCCLS M7-A6 method. The class given is functional, organism-based.
The subject of assay [5] is Micrococcus luteus. As to the kind of experiment: Antibacterial against Micrococcus luteus ATCC 9341 at 20 mg/mL after 24 hrs by NCCLS M7-A6 method. It counts as functional, organism-based.
Assay [6] concerns Micrococcus luteus. As to the kind of experiment: Antibacterial against Micrococcus luteus ATCC 10240 at 20 mg/mL after 24 hrs by NCCLS M7-A6 method. It counts as functional, organism-based.
In assay [7] the test system is Bacillus cereus. As to the kind of experiment: Antibacterial against Bacillus cereus ATCC 11778 at 20 mg/mL after 24 hrs by NCCLS M7-A6 method. It counts as functional, organism-based.
The test system of assay [8] is Bacillus subtilis. Kind of assay: Antibacterial against Bacillus subtilis ATCC 6633 at 20 mg/mL after 24 hrs by NCCLS M7-A6 method. The class given is functional, organism-based.
Assay [9] relates to Bacillus subtilis. Kind of assay: Antibacterial against Bacillus subtilis ATCC 6633 after 24 hrs by NCCLS M7-A6 method. It counts as functional.
The test system of assay [10] is Escherichia coli. Kind of assay: Antibacterial against Escherichia coli ATCC 10536 after 24 hrs by NCCLS M7-A6 method. It counts as functional. The note with it: ATCC 10536, 24 h.
For assay [11], the system named is Staphylococcus aureus. As to the kind of experiment: Antibacterial against Staphylococcus aureus ATCC 6538 after 24 hrs by NCCLS M7-A6 method. The note with it: ATCC 6538, 24 h. It counts as functional.
Assay [12] has as its system Bacillus cereus. As to the kind of experiment: Antibacterial against Bacillus cereus ATCC 11778 after 24 hrs by NCCLS M7-A6 method. The class given is functional.
The subject of assay [13] is Micrococcus luteus. As to the kind of experiment: Antibacterial against Micrococcus luteus ATCC 9341 after 24 hrs by NCCLS M7-A6 method. It counts as functional.
In assay [14] the test system is Staphylococcus aureus. As to the kind of experiment: Antibacterial against Staphylococcus aureus ATCC 6538P after 24 hrs by NCCLS M7-A6 method. It counts as functional.
The next assay has as its system 786-0. As to the kind of experiment: Cytotoxicity against human 786-0 cells assessed as cell growth inhibition at 10^-5 M. The class given is functional, cell-based.
In a further assay the test system is HL-60. As to the kind of experiment: Cytotoxicity against human HL60 cells assessed as cell growth inhibition at 10^-5 M. The class given is functional, cell-based.
Where [15] appears, read: Bacillus subtilis, ATCC 6633, 24 h, read-out: MIC.
Where [16] appears, read: Bacillus cereus, ATCC 11778, 24 h, read-out: MIC.
Where [17] appears, read: Micrococcus luteus, ATCC 9341, 24 h, read-out: MIC.

As for `O=c1ccc2ccc(O)cc2o1`, the result in the assay on Escherichia coli [1], in the assay on Staphylococcus aureus [2], in the assay on Escherichia coli [3], with Staphylococcus aureus [4], with Micrococcus luteus [5] and in the assay on Micrococcus luteus [6] was inactive. The outcome in the assay with Bacillus cereus [7] and in the assay on Bacillus subtilis [8] was inactive.
On to `CCN(CC)CCOc1cc2oc(=O)cc(C)c2cc1C(C)=O`, for which the result with Escherichia coli [1], in the assay with Staphylococcus aureus [2], in the assay with Escherichia coli [3] and in the assay with Staphylococcus aureus [4] was inactive.
As to `CCN(CC)CCOc1cc2oc(=O)cc(C)c2cc1C(C)=O.Cl`, the MIC was found to be 0.4 mM against Bacillus subtilis [9]; 7.1 mM against Escherichia coli [10]; 7.1 mM against Staphylococcus aureus [11]; 0.4 mM with Bacillus cereus [12]; 1.8 mM in the assay with Micrococcus luteus [13]; 7.1 mM with Staphylococcus aureus [14].
With `CC(=O)c1c(OCCN(C)Cc2ccccc2)ccc2c(C)cc(=O)oc12`, the MIC in the assay with Bacillus subtilis [9] (setting [15]) is 2.4 mM (≈ 877 µg/mL); in the assay on Escherichia coli [10] it was 35.7 mM (≈ 13000 µg/mL); against Staphylococcus aureus [11], 35.7 mM (≈ 13000 µg/mL); in the assay on Bacillus cereus [12] (setting [16]), 2.4 mM (≈ 877 µg/mL); in the assay with Micrococcus luteus [13] (setting [17]), 6 mM (≈ 2190 µg/mL); against Staphylococcus aureus [14] it was 23.8 mM (≈ 8700 µg/mL). Besides, the outcome with Escherichia coli [1] was inactive.
Consider `CC(=O)c1c(OCCN2CCCCC2C)ccc2c(C)cc(=O)oc12` (stereo unspecified), for which the MIC in the assay on Bacillus subtilis [9] (setting [15]) amounted to 24.6 mM (≈ 8450 µg/mL); against Escherichia coli [10], 49.2 mM (≈ 16900 µg/mL); in the assay on Staphylococcus aureus [11], 24.6 mM (≈ 8450 µg/mL); in the assay with Bacillus cereus [12] (setting [16]), 24.6 mM (≈ 8450 µg/mL); with Micrococcus luteus [13] (setting [17]), 12.3 mM (≈ 4220 µg/mL); in the assay with Staphylococcus aureus [14] it was 24.6 mM (≈ 8450 µg/mL). In addition, the “growth inhibition (GI)” value in the assay with 786-0 and in the assay on HL-60 was “Active” each time.
Consider `CC(=O)c1c(O)ccc2c(C)cc(=O)oc12`, for which the MIC is 45.8 mM (≈ 9990 µg/mL) in the assay with Bacillus subtilis [9] (setting [15]), 68.7 mM (≈ 15000 µg/mL) in the assay on Staphylococcus aureus [11], 22.9 mM (≈ 5000 µg/mL) with Bacillus cereus [12] (setting [16]) and 68.7 mM (≈ 15000 µg/mL) in the assay on Micrococcus luteus [13] (setting [17]). The outcome in the assay with Escherichia coli [1], in the assay with Escherichia coli [3] and with Staphylococcus aureus [4] was inactive.
Regarding `C[N+](C)(CCOc1ccc2ccc(=O)oc2c1)Cc1ccccc1`, the MIC in the assay on Bacillus subtilis [9] (setting [15]) was found to be 21.9 mM; in the assay on Escherichia coli [10], 21.2 mM; against Staphylococcus aureus [11], 21.2 mM; with Bacillus cereus [12] (setting [16]), 21.2 mM; with Micrococcus luteus [13] (setting [17]), 1.4 mM; in the assay with Staphylococcus aureus [14], 21.2 mM.
Turning to `CCN(CC)CCOc1ccc2ccc(=O)oc2c1`, the MIC with Bacillus subtilis [9] (setting [15]) was found to be 8.4 mM (≈ 2200 µg/mL); against Escherichia coli [10], 16.8 mM (≈ 4390 µg/mL); in the assay on Bacillus cereus [12] (setting [16]), 8.4 mM (≈ 2200 µg/mL); in the assay on Micrococcus luteus [13] (setting [17]), 8.4 mM (≈ 2200 µg/mL); with Staphylococcus aureus [14] it was 67.2 mM (≈ 17600 µg/mL). Also, the outcome with Staphylococcus aureus [2] was inactive.
Take `CCN(CC)CCOc1ccc2c(C)cc(=O)oc2c1C(C)=O`: the outcome in the assay on Escherichia coli [1], with Staphylococcus aureus [2], with Escherichia coli [3], with Staphylococcus aureus [4], in the assay on Bacillus cereus [7] and in the assay on Bacillus subtilis [8] was inactive.
For `Cc1cc(=O)oc2cc(O)ccc12` [HYMECROMONE], the result with Escherichia coli [1], with Staphylococcus aureus [2], in the assay with Escherichia coli [3], with Staphylococcus aureus [4], with Micrococcus luteus [5] and in the assay on Micrococcus luteus [6] was inactive. Besides, the result with Bacillus subtilis [8] was inactive. The MIC with Bacillus cereus [12] (setting [16]) stood at 85.1 mM (≈ 15000 µg/mL).
On to `Cc1cc(=O)oc2cc(OCCN3CCOCC3)ccc12`, for which the MIC in the assay on Bacillus subtilis [9] (setting [15]) was 69.1 mM (≈ 20000 µg/mL); with Escherichia coli [10], 51.8 mM (≈ 15000 µg/mL); with Bacillus cereus [12] (setting [16]) it was 69.1 mM (≈ 20000 µg/mL); in the assay on Micrococcus luteus [13] (setting [17]) it was 8.6 mM (≈ 2490 µg/mL); in the assay with Staphylococcus aureus [14], 69.1 mM (≈ 20000 µg/mL). The outcome in the assay with Staphylococcus aureus [2] was inactive.
In the case of `Cc1cc(=O)oc2cc(OCCN(C)Cc3ccccc3)ccc12`, the result in the assay with Escherichia coli [1], in the assay with Staphylococcus aureus [2], in the assay on Escherichia coli [3], in the assay with Staphylococcus aureus [4], in the assay on Bacillus cereus [7] and with Bacillus subtilis [8] was inactive. In the assay on Micrococcus luteus [13] (setting [17]), the MIC worked out at 40.7 mM (≈ 13200 µg/mL).
Consider `CCN(CC)CCOc1ccc2c(C)cc(=O)oc2c1C(C)=O.Cl`, for which the MIC in the assay on Micrococcus luteus [13] was determined as 3.5 mM.
For the compound `CC(C)N(CCOc1ccc2ccc(=O)oc2c1)C(C)C`, the MIC with Bacillus subtilis [9] (setting [15]) was 46 mM (≈ 13300 µg/mL); in the assay with Escherichia coli [10] it was 46 mM (≈ 13300 µg/mL); in the assay with Bacillus cereus [12] (setting [16]), 30.7 mM (≈ 8880 µg/mL); in the assay with Micrococcus luteus [13] (setting [17]) it was 46 mM (≈ 13300 µg/mL); in the assay on Staphylococcus aureus [14] it was 61.4 mM (≈ 17800 µg/mL). The result with Staphylococcus aureus [2] was inactive.
